The record followed here is patent publication US20030176477A1 (priority 2000, published 2003).

SMILES strings stand for the structures. Read-outs that look alike come from different tables or passages of the source. A value given as a limit tells only on which side of the number the result lay.

For series [1], the system named is Pyricularia oryzae. In words: whole plant or invertebrate. The format is in vivo. To be noted: foliar, 168 h, read-out: control value.
Series [2] concerns Pyricularia oryzae. The series can be described thus: whole plant or invertebrate. The series is classed as in vivo. Particulars: 168 h, read-out: control value.

As usually defined, the melting point is the temperature, or range, at which the solid turns liquid. In the case of `O=C(S)c1snc(Cl)c1Cl`, the melting point was 79 to 80 °C.

Consider `O=C(NCO)c1snc(Cl)c1Cl` [compound 45, N-hydroxymethyl-3,4-dichloro-5-isothiazolecarboxamide], for which the pest or weed control at 500 ppm in the series with Pyricularia oryzae [1] was more than 80%.

`O=C(NCC(O)CO)c1snc(Cl)c1Cl` (stereo not shown) registered a melting point of 68 to 72 °C.

The molecule `O=C(Nc1ccc(C(F)(F)F)cc1)OCNC(=O)c1snc(Cl)c1Cl` [compound 58, N-[N-(4-trifluoromethylphenyl)-carbamoyloxymethyl]-3,4-dichloro-5-isothiazolecarboxamide] returned a melting point of 117 to 119 °C. Besides, the pest or weed control at 500 ppm in the series with Pyricularia oryzae [2] was more than 80%.

`N#CC(=CNNC(=O)c1snc(Cl)c1Cl)c1ccccc1` gave a melting point of 212 to 214 °C.

Regarding `CCCC(NC(C)=O)NC(=O)c1snc(Cl)c1Cl` (stereo not shown) [compound 112, N-[1-(acetamido)butyl]-3,4-dichloro-5-isothiazolecarboxamide], the melting point lay within 162 to 165 °C. Further, in the series with Pyricularia oryzae [2], the pest or weed control at 500 ppm was more than 80%. For the same molecule, the pest or weed control at 500 ppm in the series with Pyricularia oryzae [1] was more than 80%.

As to `O=C(NCS(=O)(=O)c1ccccc1)c1snc(Cl)c1Cl` [compound 71, N-phenylsulfonylmethyl-3,4-dichloro-5-isothiazolecarboxamide], the melting point is 175 to 176 °C. Moreover, the pest or weed control at 500 ppm with Pyricularia oryzae [1] was more than 80%.

`Cn1nnnc1SCNC(=O)c1snc(Cl)c1Cl` [compound 76, N-(1-methyl-5-tetrazolethiomethyl)-3,4-dichloro-5-isothiazolecarboxamide] had a melting point of 176 to 177 °C. For the same molecule, in the series with Pyricularia oryzae [2], the pest or weed control at 500 ppm was more than 80%. For the same molecule, the pest or weed control at 500 ppm in the series with Pyricularia oryzae [1] is more than 80%.

`O=C(NC(Sc1nnc(-c2ccccc2)s1)C(F)(F)F)c1snc(Cl)c1Cl` (stereo not shown): the melting point was in the range of 124 to 127 °C.

Molecule `CC1(C)OCC(CNC(=O)c2snc(Cl)c2Cl)O1` (stereo not shown) gave a melting point of 132 to 133 °C.

On to `O=C(NCSc1ccc(Cl)cc1)c1snc(Cl)c1Cl` [compound 65, N-(4-chlorophenylthiomethyl)-3,4-dichloro-5-isothiazolecarboxamide], for which the melting point lay in the range of 106 to 107 °C. Moreover, the pest or weed control at 500 ppm with Pyricularia oryzae [1] was more than 80%.

Molecule `Cc1cc(C)n(COC(=O)c2snc(Cl)c2Cl)n1` [compound 98, 3,5-dimethylpyrazol-1-ylmethyl 3,4-dichloro-5-isothiazolecarboxylate] had a melting point of 80 to 81 °C. The pest or weed control at 500 ppm in the series on Pyricularia oryzae [1] was more than 80%.

Consider `Cc1c(-c2ccccc2)[nH]n(C(=O)c2snc(Cl)c2Cl)c1=O`, for which the melting point was in the range of 190 to 191 °C.

The molecule `O=CN(CNC(=O)c1snc(Cl)c1Cl)Cc1ccccc1` displayed a melting point of 102 to 103 °C. In the series on Pyricularia oryzae [2], the pest or weed control at 500 ppm is more than 80%. In addition, the pest or weed control at 500 ppm with Pyricularia oryzae [1] was more than 80%.

Molecule `O=C(c1snc(Cl)c1Cl)n1[nH]c(-c2ccc(Cl)cc2)cc1=O` [compound 288] showed a melting point of more than 250 °C. Further, in the series with Pyricularia oryzae [2], the pest or weed control at 500 ppm was more than 80%.

For the molecule `COCNC(=O)c1snc(Cl)c1Cl`, the melting point lay in the range of 79 to 87 °C.

`O=C(NC(O)C(F)(F)F)c1snc(Cl)c1Cl` (stereo not shown) [compound 48, N-(2,2,2-trifluoro-1-hydroxyethyl)-3,4-dichloro-5-isothiazolecarboxamide]: the melting point is 90 to 93 °C. The pest or weed control at 500 ppm with Pyricularia oryzae [1] was more than 80%.

With `CCOC(NC(=O)c1snc(Cl)c1Cl)C(F)(F)F` (stereo not shown) [compound 49, N-(2,2,2-trifluoro-1-ethoxyethyl)-3,4-dichloro-5-isothiazolecarboxamide], the melting point was 99 to 101 °C. For the same molecule, in the series with Pyricularia oryzae [2], the pest or weed control at 500 ppm is more than 80%.

Take `N#C/C(=N\c1ccc(C(F)(F)F)cc1)NC(=O)c1snc(Cl)c1Cl`: the melting point is 151 to 153 °C.

For the molecule `CN(C)/C=N/C(=O)c1snc(Cl)c1Cl` [compound 290, N-dimethylaminomethylidene-3,4-dichloro-5-iso thiazolecarboxamide], the melting point lay in the range of 196 to 197 °C. Further, the pest or weed control at 500 ppm in the series with Pyricularia oryzae [2] is more than 80%.

Molecule `Cn1nnnc1SCN(CNC(=O)c1snc(Cl)c1Cl)C(=O)c1snc(Cl)c1Cl` [compound 154, N-[(3,4-dichloro-5-isothiazolecarboxamido)-methyl]-N-(1-methyl-5-tetrazolethiomethyl)-3,4-dichloro-5-isothiazolecarboxamide] returned a melting point of 185 to 188 °C. Moreover, in the series with Pyricularia oryzae [2], the pest or weed control at 500 ppm is more than 80%.

Turning to `CN(NC=C(C#N)c1ccccc1)C(=O)c1snc(Cl)c1Cl`, the melting point fell in the range of 130 to 139 °C.
